# Measurements as given in US20250108038A1 (priority 2023, published 2025).
# System: Wistar rats
# Test: Five Choice Serial Reaction Time Task, vITI version, repeated administration
# Type: in vivo, Wistar rat
# Design: Latency (Correct) / Latency (Incorrect): unit not given here
# Details: for Latency (Correct) / Latency (Incorrect) / Magazine Head Entries / Omissions / Reward Latency / Trials Completed: vITI, mean ± SEM
# From the text: The behavioral tasks utilized were three versions of the rat Five Choice Serial Reaction Time Task (5C-SRTT), the standard version of the task (STD) with a fixed stimulus duration and a fixed intertrial interval, the variable stimulus duration (vSD) and the variable intertrial interval (vITI) version. The principal readout parameters in each task were the % Hit and the % correct choices (measures of sustained attention) and three measures of inhibitory response control (premature, perseverative, and timeout responses), although a number of additional outcome measures were obtained (see under Methods and Results below).
# Twenty-four adult (approx. 10 months old) male Wistar rats (Envigo, Inc, Indianapolis, IN) were used in the study. […] Subjects were double housed in polycarbonate cages (45×30×18 cm) with corncob bedding in a vivarium of constant temperature (21-23° C.) and humidity (40-50%). […] All behavioral testing was performed during the light portion (9 a.m.-5 p.m.) of the light/dark cycle (Monday thru Friday). Animals were cared for in accordance with the Guide for the Care and Use of Laboratory Animals (U.S. National Institutes of Health) and the experimental protocols were approved by the Institutional Animal Care and Use Committee at Augusta University (Protocol #2010-0044).
# The 5C-SRTT procedure (reviewed, Robbins, 2002. Psychopharmacology (Berl); 163(3-4):362-80) was conducted as we have described previously (Terry et al., 2014, Neurotoxicology and Teratology 44:18-29, 2014; Callahan et al., 2020, Neuropharmacology. August 15; 173:107994). […] Animals were trained in eight automated 5C-SRTT operant chambers (Med Associates, St. Albans, VT, USA), controlled by MedPC software (Med Associates). Briefly, each operant chamber was equipped with 5 apertures containing a photocell beam to detect nose pokes and a lamp (2.8 W) that could be illuminated randomly at varying durations. Food pellets (45 mg chow pellet, BioServ, Frenchtown, NJ, USA) were delivered automatically to a magazine, located on the opposite wall to the nose pokes, that was also equipped with a light that turned on to indicate that a pellet had been dispensed. The house-light remained on for the entire session unless an error or omission occurred. Training sessions began with the delivery of a food reward and retrieval triggered the first trial. […] Sessions ended when 40 minutes had lapsed or 100 trials had been completed.
# For this study, subjects were re-trained 5 days per week until they re-established a stable performance criteria with a fixed (1.0 sec) stimulus duration and a fixed ITI (5 sec) of 70-75% accuracy, <20% omissions and completion of all 100 trials for 5 consecutive days. Upon meeting these performance criteria animals were trained for one additional week and two groups of subjects (N=12) were assembled and balanced according to their performance accuracy, specifically the % Hit evaluation, which takes into account correct responses as well as all incorrect responses including the number of omissions. […] The vSD version of the task increases the attentional load while the vITI increases impulsivity-like behavior. The following outcome measures and behavioral domains were assessed: % Hit and % correct=sustained attention; omissions=attention/motivation; premature responses=impulsivity; perseverative responses=compulsivity; timeout responses=cognitive inflexibility; magazine head entries=appetitive motivation and compulsivity-like behavior; response latencies=information processing speed and/or motivation. For the STD version of the task, the stimulus duration (SD) was fixed at 1.0 sec and the ITI was fixed at 5 sec. In the vSD version of the task the following stimulus durations were presented in a pseudorandom manner: 0.3, 0.6, and 0.9 sec. In the vITI version, 2.5, 5.0, and 10.0 sec ITIs were employed in a pseudorandom manner. […]
# [1] = repeated 0.1 and 0.3 mg/kg IP, 10 sec ITI
# [2] = Group 1, 0.1 mg/kg, Drug Exp period
# [3] = Group 1, 0.1 mg/kg, Post-Drug Exp (vehicle washout) period
# [4] = Group 2, 0.3 mg/kg, Drug Exp period
# [5] = Group 2, 0.3 mg/kg, Post-Drug Exp (vehicle washout) period
smiles,measurement,setting,value
Clc1ccc(C2(OCC3OCCO3)c3ccccc3C3=NCCN32)cc1 (stereo not drawn) [Compound I-19],% Hit,repeated 0.1 and 0.3 mg/kg IP,modest decrease in accuracy that was limited to the 2.5 sec ITI
same,premature responses,[1],reduced the number of premature responses compared to both the pre- and post-drug conditions at the 10 sec ITI
same,timeout responses,[1],reduced the number of timeout responses compared to both the pre- and post-drug conditions at the 10 sec ITI
same,Latency (Correct),[2],0.99
same,Latency (Incorrect),[2],2.27 ± 0.12
same,Magazine Head Entries,[2],236.13
same,Omissions,[2],17.04
same,Reward Latency,[2],2.77
same,Trials Completed,[2],91.83 ± 4.15
same,Latency (Correct),[3],0.90 ± 0.03
same,Latency (Incorrect),[3],2.03 ± 0.09
same,Magazine Head Entries,[3],318.71 ± 34.88
same,Omissions,[3],9.63 ± 1.15
same,Reward Latency,[3],2.13
same,Trials Completed,[3],85.62 ± 4.17
same,Latency (Correct),[4],0.97
same,Latency (Incorrect),[4],2.26
same,Magazine Head Entries,[4],268.17
same,Omissions,[4],13.42
same,Reward Latency,[4],3.21
same,Trials Completed,[4],87.50
same,Latency (Correct),[5],0.81 ± 0.03
same,Latency (Incorrect),[5],1.82 ± 0.10
same,Magazine Head Entries,[5],415.04 ± 70.50
same,Omissions,[5],6.75 ± 1.44
same,Reward Latency,[5],2.06
same,Trials Completed,[5],78.46 ± 4.47
